From patent publication US5529989A (Arizona Board of Regents acting on behalf of Arizona State …, priority 1995, dated 1996)
≈ marks a conversion by molar mass, not a printed value. Entries after “also recorded” stand apart in the source; their conditions may differ.

Tests used:
cancer cell = cancer cell growth inhibitory comparison of pancratistatin with its phosphate prodrug; type: cell-based; settings: versus pancratistatin (1)
Method: (§1) There is no mathematical difference between ED50 and GI50, which are both calculated using the same formula. The only difference is historical usage.
(§2) Each drug is tested at five (5) doses: 100--10--1--0.1--0.01 μg/ml. Percent Growths are calculated for each dose. […] The log of the dose is used during the regression computation.
(§3) At the start of an experiment, cells from the in vitro cell cultures are inoculated into the appropriate tubes or microtiter plates. One set of control tubes/plates is immediately counted to determine the number of cells at the start of the experiment. This is the "baseline count" or "Tzero reading". At the end of the experiment (48 hours later) a second set of control tubes/plates is analyzed to determine the "Control Growth" value. The growth (or death) of cells relative to the initial quantity of cells is used to define the "Percent of Growth".

[1] = system: U.S. National Cancer Institute's (NCI) panel of sixty human cancer cell lines; assay: cancer cell growth inhibition, NCI panel of sixty human cancer cell lines; type: cell-based
Method: as §1
Total Growth Inhibition ("TGI"), is the drug dose needed to yield zero percent growth, i.e., just as many cells at the end of the experiment as were present in the beginning. Whether just as many cells were killed as were produced (steady state), or no growth occurred (total inhibition), cannot be distinguished.
as §2, §3

[2] = system: murine P388 lymphocytic leukemia cell line; assay: growth inhibition of murine P388 lymphocytic leukemia cell line in vitro; type: cell-based
Method: as §1, §2, §3

water solubility = type: physicochemical
[3] = stability of the phosphoric acid; type: physicochemical; settings: isolated after hydrogenolysis
RNA viruses = settings: cited from earlier work
[4] = cited from earlier work
[5] = system: murine P388 lymphocytic leukemia cell line; settings: from U.S. Pat. No. 4,985,436, cited from earlier work
[6] = system: experimental melanoma and ovary carcinoma; settings: cited from earlier work
[7] = system: murine P388 lymphocytic leukemia; settings: 0.75-12.5 mg/kg host body weight, from U.S. Pat. No. 4,985,436; cited from earlier work
[8] = system: M5074 murine ovary sarcoma; settings: 0.38 to 3.0 mg active reagent/kg host body weight; from U.S. Pat. No. 4,985,436; cited from earlier work
[9] = system: M5074 murine ovary sarcoma; settings: 6 mg/kg host body weight; from U.S. Pat. No. 4,985,436; cited from earlier work

Compound | cancer cell growth inhibition compared with pancratistatin (1) (cancer cell) | direct comparison of phosphate (5) and pancratistatin (1) [1] | GI50 ([2]; Mus musculus, 48 h, murine P388 lymphocytic leukemia cell line, dose needed to reduce the percent growth to 50%, read-out: ED50 (the source's name)) | ED50 compared with pancratistatin (1) ([2]; murine P388 lymphocytic leukemia, versus pancratistatin (1)) | solubility (water solubility) | stability [3] | activity against a range of RNA viruses (RNA viruses) | solubility in water (in words) [4] | ED50 ([5]; P388 in vitro cell line, 2880 min) | inhibition of growth of P388 in vitro cell line (in words) [5] | activity against experimental melanoma and ovary carcinoma [6] | life extension [7] | life extension [8] | cure rate [9]
O=C1N[C@H]2[C@H](O)[C@H](O)[C@@H](O)[C@H](O)[C@@H]2c2cc3c(c(OP(=O)(O)O)c21)OCO3 [compound (5), Disodium 7-Phosphoryl-Pancratistatin] | same cancer cell growth inhibition as pancratistatin (1); also recorded: very comparable results | comparable results for both compounds | 0.032 µg/mL | essentially comparable to that found for pancratistatin (1) | > 230 mg/mL |  |  |  |  |  |  |  |  | 
CC(=O)O[C@@H]1[C@@H](OC(C)=O)[C@H](OC(C)=O)[C@@H]2c3cc4c(c(OP(=O)(O)O)c3C(=O)N[C@H]2[C@@H]1OC(C)=O)OCO4 [4b, 7-phosphoryl-pancratistatin tetraacetate] |  |  |  |  |  | unstable |  |  |  |  |  |  |  | 
O=C1N[C@H]2[C@H](O)[C@H](O)[C@@H](O)[C@H](O)[C@@H]2c2cc3c(c(O)c21)OCO3 [pancratistatin] |  | comparable results for both compounds |  |  |  |  | activity against a range of RNA viruses | at best sparingly soluble in water | 0.001 µg/mL (≈ 3.07 nM) | markedly inhibited growth | potent activity | 38-106% | 53% to 84 | 50%
